Experimental data taken from patent US20110021565A1, “PIPERIDINE DERIVATIVES AS NK3 ANTAGONISTS” (priority 2007, published 2011).
pKi: −log10 of the molar value. Counter-ions that a name gives are not always drawn. Like-named read-outs stand apart in the source and are kept apart here.

Target: T1, recombinant human NK3 receptor (Homo sapiens, UniProt P29371)
T1 construct: expressed in transfected cells; host or cells: HEK293 cells, transient expression; membrane preparation
T1 sequence (P29371 1-465): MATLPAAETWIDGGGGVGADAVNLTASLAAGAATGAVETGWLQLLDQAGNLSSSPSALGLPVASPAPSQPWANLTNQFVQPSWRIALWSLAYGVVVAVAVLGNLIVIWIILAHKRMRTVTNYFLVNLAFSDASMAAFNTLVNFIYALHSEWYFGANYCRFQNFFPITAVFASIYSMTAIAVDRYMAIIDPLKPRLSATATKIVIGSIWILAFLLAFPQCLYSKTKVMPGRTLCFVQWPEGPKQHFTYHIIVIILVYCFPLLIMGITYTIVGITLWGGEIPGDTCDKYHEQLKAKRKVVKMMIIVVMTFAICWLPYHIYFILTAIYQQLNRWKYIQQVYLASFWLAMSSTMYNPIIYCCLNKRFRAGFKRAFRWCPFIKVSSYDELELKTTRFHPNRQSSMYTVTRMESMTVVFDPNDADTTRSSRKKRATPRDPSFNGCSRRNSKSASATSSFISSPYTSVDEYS
Test: [3H]SR142801 competition binding assay
Protocol: [^3H]SR142801 Competition Binding Assay
hNK3 receptor binding experiment were performed using [^3H]SR142801 (Catalog No. TRK1035, specific activity: 74.0 Ci/mmol, Amersham, GE Healthcare UK limited, Buckinghamshire, UK) and membrane isolated from HEK293 cells transiently expressing recombinant human NK3 receptor. After thawing, the membrane homogenates were centrifuged at 48,000×g for 10 min at 4° C., the pellets were resuspended in the 50 mM Tris-HCl, 4 mM MnCl2, 1 μM phosphoramidon, 0.1% BSA binding buffer at pH 7.4 to a final assay concentration of 5 μg protein/well. For inhibition experiments, membranes were incubated with [^3H]SR142801 at a concentration equal to KD value of radioligand and 10 concentrations of the inhibitory compound (0.0003-10 μM) (in a total reaction volume of 500 μl) for 75 min at room temperature (RT). At the end of the incubation, membranes were filtered onto unitfilter (96-well white microplate with bonded GF/C filter preincubated 1 h in 0.3% PEI+0.3% BSA, Packard BioScience, Meriden, Conn.) with a Filtermate 196 harvester (Packard BioScience) and washed 4 times with ice-cold 50 mM Tris-HCl, pH 7.4 buffer. Nonspecific binding was measured in the presence of 10 μM SB222200 for both radioligands. The radioactivity on the filter was counted (5 min) on a Packard Top-count microplate scintillation counter with quenching correction after addition of 45 μl of microscint 40 (Canberra Packard S. A., Zurich, Switzerland) and shaking for 1 h. Inhibition curves were fitted according to the Hill equation: y=100/(1+(x/IC50)^nH), where nH=slope factor using Excel-fit 4 software ([…]). IC50 values were derived from the inhibition curve and the affinity constant (IQ values were calculated using the Cheng-Prussoff equation Ki=IC50/(1+[L]/KD) where [L] is the concentration of radioligand and KD is its dissociation constant at the receptor, derived from the saturation isotherm. All experiments were performed in duplicate and the mean±standard error (SEM) of the individual Ki values was calculated.

[1] = [3H]SR142801, membranes of HEK293 cells transiently expressing recombinant human NK3 receptor, read-out: hNK3 Ki
[2] = representative compounds, [3H]SR142801, HEK293 membranes, human NK3 receptor, read-out: Ki NK3 h

| SMILES | pKi [1] | pKi [2] |
| --- | --- | --- |
| CN(Cc1ccc(C(F)(F)F)cc1)C(=O)C(F)(CCN1CCC(NS(C)(=O)=O)CC1)c1ccc(Cl)c(Cl)c1 (stereo not drawn) [Example 66, 2-(3,4-Dichloro-phenyl)-2-fluoro-4-(4-methanesulfonyl-amino-piperidin-1-yl)-N-methyl-N-(4-trifluoromethyl-benzyl)-butyramide] | 7.07 |  |
| CC(=O)N(C)C1CCN(CCC(C)(C(=O)NC(c2ccc(F)cc2)C(F)(F)F)c2ccc(Cl)c(Cl)c2)CC1 (stereo not drawn) [Example 135, 4-[4-(Acetyl-methyl-amino)-piperidin-1-yl]-2-(3,4-dichloro-phenyl)-2-methyl-N-[2,2,2-trifluoro-1-(4-fluoro-phenyl)-ethyl]-butyramide] | 7.90 |  |
| CC(CCN1CCC(N2CCCC2=O)CC1)(C(=O)N[C@@H](CO)c1ccc(F)cc1)c1ccc(Cl)c(Cl)c1 (single isomer, unassigned) [Example 129, 2-(3,4-Dichloro-phenyl)-N-[(R)-1-(4-fluoro-phenyl)-2-hydroxy-ethyl]-2-(R or S) methyl-4-[4-(2-oxo-pyrrolidin-1-yl)-piperidin-1-yl]-butyramide] | 8.09 | 8.09 |
| CCN(C1CCN(CCC(C)(C(=O)N(C)Cc2ccc(C)cc2)c2ccc(Cl)c(Cl)c2)CC1)S(C)(=O)=O (stereo not drawn) [Example 77, 2-(3,4-Dichloro-phenyl)-4-[4-(ethyl-methanesulfonyl-amino)-piperidin-1-yl]-2,N-dimethyl-N-(4-methyl-benzyl)-butyramide] | 8.51 | 8.51 |
| CC(=O)N(C)C1CCN(CCC(C)(C(=O)N[C@@H](CO)c2ccc(Cl)cc2)c2ccc(Cl)c(Cl)c2)CC1 (stereo partly drawn) [Example 136, 4-[4-(Acetyl-methyl-amino)-piperidin-1-yl]-N-[1-(4-chloro-phenyl)-2-hydroxy-ethyl]-2-(3,4-dichloro-phenyl)-2-methyl-butyramide (diastereosisomer 1)] | 8.02 | 8.02 |
| CN(Cc1ccc(Cl)c(C(F)(F)F)c1)C(=O)C(C)(CCN1CCC(N2CCCC2=O)CC1)c1ccc(Cl)c(Cl)c1 (stereo not drawn) [Example 85, N-(4-Chloro-3-trifluoromethyl-benzyl)-2-(3,4-dichloro-phenyl)-2,N-dimethyl-4-[4-(2-oxo-pyrrolidin-1-yl)-piperidin-1-yl]-butyramide] | 8.85 | 8.85 |
| CCN(C(C)=O)C1CCN(CCC(C)(C(=O)N[C@@H](CO)c2ccc(F)cc2)c2ccc(Cl)c(Cl)c2)CC1 (single isomer, unassigned; epimer 1) [Example 166] | 8.66 | 8.66 |
| CC(NC(=O)C(C)(CCN1CCC(NS(C)(=O)=O)CC1)c1ccc(Cl)c(Cl)c1)c1ccc(Cl)cc1 (stereo not drawn) [Example 16, N-[1-(4-Chloro-phenyl)-ethyl]-2-(3,4-dichloro-phenyl)-4-(4-methanesulfonyl-amino-piperidin-1-yl)-2-methyl-butyramide] | 6.76 |  |
| CN(Cc1ccc(Cl)cc1)C(=O)C(CCN1CCC(N2CCCC2=O)CC1)c1ccccc1 (stereo not drawn) [Example 114, N-(4-Chloro-benzyl)-N-methyl-4-[4-(2-oxo-pyrrolidin-1-yl)-piperidin-1-yl]-2-phenyl-butyramide] | 6.25 |  |
| CN(Cc1ccc(F)c(C(F)(F)F)c1)C(=O)C(C)(CCN1CCC(N2CCCC2=O)CC1)c1ccc(Cl)c(Cl)c1 (single isomer, unassigned) [Example 119, (R or S)-2-(3,4-Dichloro-phenyl)-N-(4-fluoro-3-trifluoromethyl-benzyl)-2,N-dimethyl-4-[4-(2-oxo-pyrrolidin-1-yl)-piperidin-1-yl]-butyramide; hydrochloride] | 9.10 | 9.10 |
| CC(=O)N(C)C1CCN(CCC(C)(C(=O)N(C)Cc2cccc(Cl)c2)c2ccc(Cl)c(Cl)c2)CC1 (stereo not drawn) [Example 105, 4-[4-(Acetyl-methyl-amino)-piperidin-1-yl]-N-(3-chloro-benzyl)-2-(3,4-dichloro-phenyl)-2,N-dimethyl-butyramide] | 8.06 | 8.06 |
| CC[C@H](NC(=O)C(C)(CCN1CCC(N(CC)C(C)=O)CC1)c1ccc(Cl)c(Cl)c1)c1ccccc1 (stereo partly drawn) [Example 168, 4-[4-(Acetyl-ethyl-amino)-piperidin-1-yl]-2-(3,4-dichloro-phenyl)-2-methyl-N-((S)-1-phenyl-propyl)-butyramide] | 8.52 | 8.52 |
| CC(CCN1CCC(NS(C)(=O)=O)CC1)(C(=O)NCc1ccc(Cl)c(Cl)c1)c1ccc(Cl)c(Cl)c1 (stereo not drawn) [Example 11, N-(3,4-Dichloro-benzyl)-2-(3,4-dichloro-phenyl)-4-(4-methanesulfonyl-amino-piperidin-1-yl)-2-methyl-butyramide] | 7.35 |  |
| COc1ccc(CN(C)C(=O)C(C)(CCN2CCC(NS(C)(=O)=O)CC2)c2ccc(Cl)c(Cl)c2)cc1F (stereo not drawn) [Example 1, 2-(3,4-Dichloro-phenyl)-N-(3-fluoro-4-methoxy-benzyl)-4-(4-methanesulfonylamino-piperidin-1-yl)-2,N-dimethyl-butyramide] | 6.73 |  |
| CN(Cc1cccc(F)c1)C(=O)C(CCN1CCC(NS(C)(=O)=O)CC1)c1ccc(Cl)c(Cl)c1 (stereo not drawn) [Example 43, 2-(3,4-Dichloro-phenyl)-N-(3-fluoro-benzyl)-4-(4-methanesulfonyl-amino-piperidin-1-yl)-N-methyl-butyramide] | 6.59 |  |
| CC(=O)N(C)C1CCN(CCC(C)(C(=O)N[C@@H](CO)c2ccc(Cl)c(Cl)c2)c2ccc(Cl)c(Cl)c2)CC1 (single isomer, unassigned; diastereoisomer 1) [Example 109, 4-[4-(Acetyl-methyl-amino)-piperidin-1-yl]-2-(3,4-dichloro-phenyl)-N-[1-(3,4-dichloro-phenyl)-2-hydroxy-ethyl]-2-methyl-butyramide; diastereoisomer 1] | 8.25 | 8.25 |
| CC(=O)NC1CCN(CCC(C)(C(=O)N[C@H](CO)c2ccc(Cl)c(Cl)c2)c2ccc(Cl)c(Cl)c2)CC1 (single isomer, unassigned; diastereoisomer 2) [Example 159] | 6.59 |  |
| CCCN(C(C)=O)C1CCN(CCC(C)(C(=O)N[C@H](CC)c2ccccc2)c2ccc(Cl)c(Cl)c2)CC1 (stereo partly drawn) [Example 165, 4-[4-(Acetyl-propyl-amino)-piperidin-1-yl]-2-(3,4-dichloro-phenyl)-2-methyl-N-((R)-1-phenyl-propyl)-butyramide] | 7.84 |  |
| CC(=O)N(C1CC1)C1CCN(CCC(C)(C(=O)N[C@@H](CO)c2ccc(Cl)cc2)c2ccc(Cl)c(Cl)c2)CC1 (single isomer, unassigned; diastereoisomer 2) [Example 143, 4-[4-(Acetyl-cyclopropyl-amino)-piperidin-1-yl]-N-[1-(4-chloro-phenyl)-2-hydroxy-ethyl]-2-(3,4-dichloro-phenyl)-2-methyl-butyramide (diastereoisomer 2)] | 7.06 |  |
| CN(Cc1ccc(F)c(C(F)(F)F)c1)C(=O)C(CCN1CCC(NS(C)(=O)=O)CC1)c1ccc(Cl)c(Cl)c1 (stereo not drawn) [Example 44, 2-(3,4-Dichloro-phenyl)-N-(4-fluoro-3-trifluoromethyl-benzyl)-4-(4-methanesulfonyl-amino-piperidin-1-yl)-N-methyl-butyramide] | 6.88 |  |
| CN(Cc1ccc(F)c(C(F)(F)F)c1)C(=O)C(F)(CCN1CCC(NS(C)(=O)=O)CC1)c1ccc(Cl)c(Cl)c1 (stereo not drawn) [Example 64, 2-(3,4-Dichloro-phenyl)-2-fluoro-N-(4-fluoro-3-trifluoromethyl-benzyl)-4-(4-methanesulfonyl-amino-piperidin-1-yl)-N-methyl-butyramide] | 6.91 |  |
